In patent US12350283B2, “Methods and compositions for treating motor neuron diseases” (UNIVERSITAT DE VALENCIA-ESTUDI GENERAL, priority 2019, dated 2025):

Key:
[1] = tested on: FUS-R521C mice; test: Survival of FUS-R521C mice; type: in vivo, mouse
Method: FUS-R521C mice (ALS model; transgene injected into B6SJL oocytes. Maintained on C57BL/6, therefore subsequent generations have a higher percentage of C57BL/6) were selected for methods examining the effects of the addition of acetylcysteine.
Acetylcysteine (NAC) was administered intraperitoneally (IP): 100 mg/kg per day, beginning on week 30, in experiments examining the effect of the addition of NAC.

[2] = after oral administration; cited from earlier work
[3] = tested on: SOD1-G93A mice; test: Rotarod test in SOD1 mice; type: in vivo, mouse; details: for Rotarod test (maximum period on rotating axle): SOD1 mice, limit 1200 seconds, mean
Method: (§1) EH301 [Nicotinamide riboside (NR) and pterostilbene (PT)] was administered orally: 185 mg of nicotinamide riboside and 30 mg of pterostilbene/Kg×day (Estrela J M, De La Rubia J E, Dellinger R W. Treating and preventing motor neuron disease using nicotinamide riboside. PCT/US 18/32932, 2018).
(§2) Dexamethasone (DXM) was administered i.p. following sequential 4 weeks-cycle along the experimental time: 1 mg/Kg×day (1st week), 0.5 mg/Kg×day (2nd week), 0.25 mg/Kg×day (3rd week), 0.0 mg/Kg×day ([…]). The dose of 1 mg/Kg was selected based on Kurkowska-Jastrzebska I, Litwin T, Joniec I, Ciesielska A, Przybyłkowski A, Członkowski A, Członkowska A. Dexamethasone protects against dopaminergic neurons damage in a mouse model of Parkinson's disease. Int Immunopharmacol. 2004 October; 4(10-11):1307-18. The cyclic dose regime was designed to optimize the therapeutic benefit causing minimal possible side effects.
(§3) Ibudilast (IB) was administered orally: 12 mg/Kg×day (Wang H, Mei Zl, Zhong K L, Hu M, Long Y, Miao M X, Li N, Yan T H, Hong H. Pretreatment with antiasthmatic drug ibudilast ameliorates Aβ 1-42-induced memory impairment and neurotoxicity in mice. Pharmacol Biochem Behav. 2014 September; 124:373-9).
(§4) Daily doses of NR, DXM and IB were administered together dissolved in 75 uL of physiological saline. PT was present in the chow of laboratory animals. The PT dose was adjusted based on the animal weight and the amount of food ingested per day.
Functions of the test include evaluating balance, grip strength and motor coordination of the subjects; especially in testing the effect of experimental drugs. For this test (Rota Rod, Harvard Apparatus, Holliston, MA) each animal was given three trials and the maximum period (seconds) that it could remain on a rotating axle (3.5 cm diameter; speed of rotation: 15 rpm) without falling was measured. Each mouse was given up to three attempts for an arbitrary limit of 1200 seconds and the longest period was recorded. Changes over time in the different groups were monitored weekly.
(§5) • Data are presented as mean values f SD for the number of different experiments. • Statistical analyses were performed using Student's t-test. • P<0.05 and **P<0.01 comparing all SOD1 groups versus WT (wild type). • ^+P<0.05 and ^++P<0.01 comparing all SOD1 groups treated with EH301, DXM, IB or their combinations versus SOD1 untreated controls. • ^aP<0.05 and ^aaP<0.01 comparing SOD1+EH301+DXM or SOD1+EH301+IB groups versus SOD1+EH301. • ^bP<0.05 and ^bbP<0.01 comparing SOD1+EH301+DXM or SOD1+EH301+IB groups versus SOD1+DXM • ^cP<0.05 and ^ccP<0.01 comparing SOD1+EH301+DXM or SOD1+EH301+IB groups versus SOD1+IB

[4] = tested on: SOD1-G93A mice; test: Neurological score (scale of Weydt et al.) in SOD1 mice; type: in vivo, mouse; details: scale 0-5
Method: as §1, §2, §3, §4
This neurological score is based on the scale of Weydt et al. (Weydt, P., Hong, S. Y., Kliot, M., Moller, T., 2003. Assessing disease onset and progression in the SOD1 mouse model of ALS. NeuroReport 14, 1051-1054). […] When the animals reach a score of “4”, the access to food and water will be facilitated by placing food pellets on the cage floor to all transgenic mice. Reaching a score of “5”, the animals will be euthanized for ethical reasons. Onset is defined as the earliest time when the mice show symptoms (score <4). Changes over time in the different groups were monitored weekly.
as §5

[5] = tested on: SOD1-G93A mice; test: Survival of SOD1 G93A mice (Kaplan-Meier); type: in vivo, mouse; details: for Survival time (surviving mice per group): SOD1 mice
Description: Mice hemizygous for SOD1-G93A (also called G93A-SOD1) transgene are viable and fertile, with transgenic expression of a G93A mutant form of human SOD1. This founder line (often referred to as G1H) is reported to have a high transgene copy number. […] Motor neuron degeneration has been associated with function and/or degeneration of astrocytes, the major glial cell type of the nervous system. Transgenic mice have an abbreviated life span: 50% survive at 157.1+/−9.3 days (in contrast to the mixed B6SJL background where 50% survival is observed at 128.9+/−9.1 days). Female hemizygotes are poor breeders, and rarely produce more than one litter before the onset of disease. […] The pattern of gene expression in SOD1G93A activated microglia represents a unique ALS-specific signature. These SOD1-G93A (also called G93A-SOD1) transgenic mice us thus useful in studying neuromuscular disorders, including Amyotrophic Lateral Sclerosis.
The SOD1-G93A transgene was designed with a mutant human SOD1 gene (harboring a single amino acid substitution of glycine to alanine at codon 93) driven by its endogenous human SOD1 promoter. This transgene was injected into fertilized B6SJLF1 mouse eggs and founder animals were obtained. Transgenic mice on a mixed B6SJL genetic background were sent to The Jackson Laboratory (as Stock No. 002726). Upon arrival, some mice were backcrossed to C57BL/6J for at least 10 generations to generate this congenic strain (Stock No. 004435). The backcross was completed in July 2002.
as §1, §2, §3, §4, §5

[6] = SOD1-G93A mice, versus control untreated

Structure (SMILES): CC(=O)N[C@@H](CS)C(=O)O [NAC, N-acetylcysteine]
- survival ([1]; FIG. 3C): about 32 days
- half-life [2]: about 6 hours
- time to max. plasma level [2]: 2 to 3 h

Structure (SMILES): C[C@@H]1C[C@H]2[C@@H]3CCC4=CC(=O)C=C[C@]4(C)[C@@]3(F)[C@@H](O)C[C@]2(C)[C@@]1(O)C(=O)CO [DXM, Dexamethasone]
- Rotarod test (maximum period on rotating axle) ([3]; week 10, 15 rpm): 1200 s
- Rotarod test (maximum period on rotating axle) ([3]; week 11, 15 rpm): 1200 s
- Rotarod test (maximum period on rotating axle) ([3]; week 12, 15 rpm): 1200 s
- Rotarod test (maximum period on rotating axle) ([3]; week 13, 15 rpm): 1200 s
- Rotarod test (maximum period on rotating axle) ([3]; week 14, 15 rpm): 1200 s
- Rotarod test (maximum period on rotating axle) ([3]; week 15, 15 rpm): 1130 s
- Rotarod test (maximum period on rotating axle) ([3]; week 16, 15 rpm): 1045 s
- Rotarod test (maximum period on rotating axle) ([3]; week 17, 15 rpm): 820 s
- Rotarod test (maximum period on rotating axle) ([3]; week 18, 15 rpm): 336 s
- Rotarod test (maximum period on rotating axle) ([3]; week 19, 15 rpm): 225 s
- Rotarod test (maximum period on rotating axle) ([3]; week 20, 15 rpm): 161 s
- Rotarod test (maximum period on rotating axle) ([3]; week 21, 15 rpm): 52 s
- Rotarod test (maximum period on rotating axle) ([3]; week 22, 15 rpm): 0 s
- Neurological score ([4]; week 10, mean): 0
- Neurological score ([4]; week 11, mean): 0
- Neurological score ([4]; week 12, mean): 0
- Neurological score ([4]; week 13, mean): 0
- Neurological score ([4]; week 14, mean): 0.50
- Neurological score ([4]; week 15, mean): 0.70
- Neurological score ([4]; week 16, mean): 1
- Neurological score ([4]; week 17, mean): 1
- Neurological score ([4]; week 18, mean): 1.60
- Neurological score ([4]; week 19, mean): 2.50
- Neurological score ([4]; week 20, mean): 3
- Neurological score ([4]; week 21, mean): 3.40
- Neurological score ([4]; week 22, mean): 4
- Survival time (surviving mice per group) ([5]; week 10): 10
- Survival time (surviving mice per group) ([5]; week 11): 10
- Survival time (surviving mice per group) ([5]; week 12): 9
- Survival time (surviving mice per group) ([5]; week 13): 9
- Survival time (surviving mice per group) ([5]; week 14): 9
- Survival time (surviving mice per group) ([5]; week 15): 9
- Survival time (surviving mice per group) ([5]; week 16): 9
- Survival time (surviving mice per group) ([5]; week 17): 9
- Survival time (surviving mice per group) ([5]; week 18): 9
- Survival time (surviving mice per group) ([5]; week 19): 9
- Survival time (surviving mice per group) ([5]; week 20): 7
- Survival time (surviving mice per group) ([5]; week 21): 4
- Survival time (surviving mice per group) ([5]; week 22): 1
- Survival time (surviving mice per group) ([5]; week 23): 0

Structure (SMILES): CC(C)C(=O)c1c(C(C)C)nn2ccccc12 [IBU, 2-methyl-1-(2-(1-methylethyl)pyrazolo(1,5-a)pyridin-3-yl)1-propanone]
- survival ([1]; FIGS. 3A-3C, end of study 45 weeks): about 30 weeks
- motor coordination / motor-neuron dependent functions (in words) [3, 6]: some improvement
- Rotarod test (maximum period on rotating axle) ([3]; week 10, 15 rpm): 1200 s
- Rotarod test (maximum period on rotating axle) ([3]; week 11, 15 rpm): 1200 s
- Rotarod test (maximum period on rotating axle) ([3]; week 12, 15 rpm): 1200 s
- Rotarod test (maximum period on rotating axle) ([3]; week 13, 15 rpm): 1200 s
- Rotarod test (maximum period on rotating axle) ([3]; week 14, 15 rpm): 1200 s
- Rotarod test (maximum period on rotating axle) ([3]; week 15, 15 rpm): 1200 s
- Rotarod test (maximum period on rotating axle) ([3]; week 16, 15 rpm): 1200 s
- Rotarod test (maximum period on rotating axle) ([3]; week 17, 15 rpm): 926 s
- Rotarod test (maximum period on rotating axle) ([3]; week 18, 15 rpm): 544 s
- Rotarod test (maximum period on rotating axle) ([3]; week 19, 15 rpm): 197 s
- Rotarod test (maximum period on rotating axle) ([3]; week 20, 15 rpm): 102 s
- Rotarod test (maximum period on rotating axle) ([3]; week 21, 15 rpm): 30 s
- Rotarod test (maximum period on rotating axle) ([3]; week 22, 15 rpm): 0 s
- Neurological score ([4]; week 10, mean): 0
- Neurological score ([4]; week 11, mean): 0
- Neurological score ([4]; week 12, mean): 0
- Neurological score ([4]; week 13, mean): 0
- Neurological score ([4]; week 14, mean): 0
- Neurological score ([4]; week 15, mean): 0.30
- Neurological score ([4]; week 16, mean): 0.75
- Neurological score ([4]; week 17, mean): 1
- Neurological score ([4]; week 18, mean): 1.50
- Neurological score ([4]; week 19, mean): 2.20
- Neurological score ([4]; week 20, mean): 3
- Neurological score ([4]; week 21, mean): 3.70
- Neurological score ([4]; week 22, mean): 4
- mean survival ([5]; SOD1-G93A mice treated from day 50): 137 days
- survival (in words) [5, 6]: some improvement
- Survival time (surviving mice per group) ([5]; week 10): 10
- Survival time (surviving mice per group) ([5]; week 11): 10
- Survival time (surviving mice per group) ([5]; week 12): 10
- Survival time (surviving mice per group) ([5]; week 13): 10
- Survival time (surviving mice per group) ([5]; week 14): 10
- Survival time (surviving mice per group) ([5]; week 15): 10
- Survival time (surviving mice per group) ([5]; week 16): 10
- Survival time (surviving mice per group) ([5]; week 17): 10
- Survival time (surviving mice per group) ([5]; week 18): 10
- Survival time (surviving mice per group) ([5]; week 19): 8
- Survival time (surviving mice per group) ([5]; week 20): 4
- Survival time (surviving mice per group) ([5]; week 21): 3
- Survival time (surviving mice per group) ([5]; week 22): 1
- Survival time (surviving mice per group) ([5]; week 23): 0
